The values that follow are results of earlier work, collected in patent US9180198B2, “Slow-release cilostazol tablet having an improved elution rate and minimal side effects” (KOREA UNITED PHARM, INC., priority 2009, dated 2015).

One data set concerns blood platelets. Particulars: blood platelets isolated from a mouse, a rat, a rabbit, a dog and a human.
For data set [1], the system named is cAMP-PDE (cyclic AMP phosphodiesterase). To be noted: in blood platelets and vascular smooth muscles.

Regarding `O=C1CCc2cc(OCCCCc3nnnn3C3CCCCC3)ccc2N1` [cilostazol, 6-[4-(cyclohexyl-1H-tetrazol-5-yl)butoxy]-3,4-dihydro-2(1H)-quinolinone], the water solubility result is listed as “poorly water-soluble”. In addition, the “primary aggregation of blood platelets caused by ADP, epinephrine” value in the data set with blood platelets is given as “suppress the primary aggregation of blood platelets”. The cAMP-PDE activity entry in data set [1] was “inhibit cAMP-PDE (cyclic AMP phosphodiesterase) activity”.
